Experimental data reported in the CheMixHub viscosity set.
Values joined by “and” are separate entries in the source; they are usually repeats but may differ in a detail not shown here. Equal entries are not always repeated. ± gives the uncertainty stated by the source.

Assay: xn = mol fraction of the nth substance listed

CCCC[N+](CCCC)(CCCC)CCCC.[OH-] + O
viscosity [mPa·s], 101 kPa
Conditions | x1 = 0.00178 | x1 = 0.00364 | x1 = 0.007655 | x1 = 0.0121 | x1 = 0.01706 | x1 = 0.02262 | x1 = 0.0289
298.15 K | 1.232 ± 0.022 | 1.332 ± 0.024 | 1.432 ± 0.026 | 2.03 ± 0.036 | 2.632 ± 0.047 | 3.779 ± 0.068 | 4.942 ± 0.088
303.15 K | 1.088 ± 0.019 | 1.173 ± 0.021 | 1.258 ± 0.022 | 1.697 ± 0.03 | 2.233 ± 0.04 | 3.129 ± 0.056 | 4.045 ± 0.072
313.15 K | 0.8712 ± 0.015 | 0.9342 ± 0.017 | 0.9951 ± 0.018 | 1.319 ± 0.024 | 1.659 ± 0.03 | 2.198 ± 0.039 | 2.857 ± 0.051
323.15 K | 0.716 ± 0.013 | 0.7632 ± 0.013 | 0.8107 ± 0.014 | 1.04 ± 0.018 | 1.289 ± 0.023 | 1.692 ± 0.03 | 2.115 ± 0.038

CC(Cl)(Cl)Cl + COC(C)=O
Conditions | viscosity
298.15 K, 101.33 kPa, x1 = 0.1 | 0.3907 ± 0.0044 mPa·s
298.15 K, 101.33 kPa, x1 = 0.101 | 0.3907 ± 0.0044 mPa·s
298.15 K, 101.33 kPa, x1 = 0.198 | 0.4156 ± 0.0046 mPa·s
298.15 K, 101.33 kPa, x1 = 0.199 | 0.4157 ± 0.0046 mPa·s
298.15 K, 101.33 kPa, x1 = 0.297 | 0.4438 ± 0.0048 mPa·s
298.15 K, 101.33 kPa, x1 = 0.3 | 0.445 ± 0.0048 mPa·s
298.15 K, 101.33 kPa, x1 = 0.398 | 0.4763 ± 0.0051 mPa·s
298.15 K, 101.33 kPa, x1 = 0.401 | 0.4774 ± 0.0051 mPa·s
298.15 K, 101.33 kPa, x1 = 0.499 | 0.513 ± 0.0054 mPa·s
298.15 K, 101.33 kPa, x1 = 0.5 | 0.5132 ± 0.0054 mPa·s and 0.5114 ± 0.0054 mPa·s
298.15 K, 101.33 kPa, x1 = 0.599 | 0.5525 ± 0.0057 mPa·s and 0.5545 ± 0.0058 mPa·s
298.15 K, 101.33 kPa, x1 = 0.699 | 0.6024 ± 0.0062 mPa·s
298.15 K, 101.33 kPa, x1 = 0.799 | 0.6574 ± 0.0067 mPa·s
298.15 K, 101.33 kPa, x1 = 0.901 | 0.7178 ± 0.0072 mPa·s
303.15 K, 101.3 kPa, x2 = 0.0993 | 0.6661 ± 0.0059 mPa·s
303.15 K, 101.3 kPa, x2 = 0.2042 | 0.6072 ± 0.0056 mPa·s
303.15 K, 101.3 kPa, x2 = 0.3008 | 0.5599 ± 0.0055 mPa·s
303.15 K, 101.3 kPa, x2 = 0.4008 | 0.5182 ± 0.0053 mPa·s
303.15 K, 101.3 kPa, x2 = 0.5039 | 0.4792 ± 0.0052 mPa·s
303.15 K, 101.3 kPa, x2 = 0.6038 | 0.4462 ± 0.005 mPa·s
303.15 K, 101.3 kPa, x2 = 0.6968 | 0.4186 ± 0.0049 mPa·s
303.15 K, 101.3 kPa, x2 = 0.7992 | 0.3921 ± 0.0049 mPa·s
303.15 K, 101.3 kPa, x2 = 0.902 | 0.3668 ± 0.0048 mPa·s

CCCCCBr + Cc1cc(C)cc(C)c1
308.15 K, 101 kPa
Conditions | viscosity [mPa·s]
x2 = 0.1098 | 0.6376 ± 0.0053
x2 = 0.2005 | 0.6292 ± 0.0052
x2 = 0.2983 | 0.6179 ± 0.0051
x2 = 0.4035 | 0.6093 ± 0.0051
x2 = 0.4979 | 0.6042 ± 0.005
x2 = 0.6027 | 0.5945 ± 0.005
x2 = 0.802 | 0.5739 ± 0.0048
x2 = 0.8481 | 0.5719 ± 0.0048
x2 = 0.9023 | 0.5699 ± 0.0048

O=S(=O)([O-])NC1CCCCC1.[Cs+] + O
viscosity [mPa·s], 101 kPa
Conditions | x1 = 0.0009023 | x1 = 0.001363 | x1 = 0.001814 | x1 = 0.002253 | x1 = 0.002731 | x1 = 0.00317 | x1 = 0.003611 | x1 = 0.004062
293.15 K | 1.024 ± 0.0068 | 1.036 ± 0.0069 | 1.047 ± 0.007 | 1.058 ± 0.007 | 1.071 ± 0.0071 | 1.082 ± 0.0072 | 1.093 ± 0.0072 | 1.105 ± 0.0073
298.15 K | 0.91 ± 0.0062 | 0.9199 ± 0.0062 | 0.9302 ± 0.0063 | 0.9399 ± 0.0063 | 0.951 ± 0.0064 | 0.9605 ± 0.0064 | 0.9704 ± 0.0065 | 0.9807 ± 0.0066
303.15 K | 0.8151 ± 0.0056 | 0.8242 ± 0.0056 | 0.8329 ± 0.0057 | 0.8415 ± 0.0057 | 0.8512 ± 0.0058 | 0.8595 ± 0.0058 | 0.8685 ± 0.0059 | 0.8771 ± 0.0059
313.15 K | 0.6672 ± 0.0047 | 0.6742 ± 0.0047 | 0.6815 ± 0.0048 | 0.6879 ± 0.0048 | 0.6959 ± 0.0049 | 0.7025 ± 0.0049 | 0.7097 ± 0.0049 | 0.7163 ± 0.005
323.15 K | 0.5584 ± 0.0041 | 0.5642 ± 0.0041 | 0.5696 ± 0.0041 | 0.5753 ± 0.0042 | 0.5813 ± 0.0042 | 0.5866 ± 0.0042 | 0.5921 ± 0.0042 | 0.5977 ± 0.0043

CC(Cl)(Cl)Cl + CC(=O)CC(C)C
298.15 K, 101.33 kPa
Conditions | viscosity [mPa·s]
x2 = 0.0803 | 0.739 ± 0.007
x2 = 0.1769 | 0.694 ± 0.007
x2 = 0.2653 | 0.665 ± 0.007
x2 = 0.3765 | 0.634 ± 0.006
x2 = 0.4692 | 0.614 ± 0.006
x2 = 0.5907 | 0.594 ± 0.006
x2 = 0.7245 | 0.573 ± 0.006
x2 = 0.8536 | 0.558 ± 0.006

CC(Cl)(Cl)Cl + CCO
viscosity [mPa·s], 101.32 kPa
Conditions | x2 = 0.1602 | x2 = 0.3002 | x2 = 0.4237 | x2 = 0.5336 | x2 = 0.6318 | x2 = 0.7202 | x2 = 0.8001 | x2 = 0.8728 | x2 = 0.9392
303.15 K | 0.705 ± 0.071 | 0.745 ± 0.075 | 0.778 ± 0.078 | 0.839 ± 0.084 | 0.87 ± 0.087 | 0.902 ± 0.091 | 0.924 ± 0.093 | 0.942 ± 0.095 | 0.984 ± 0.099
313.15 K | 0.614 ± 0.062 | 0.669 ± 0.067 | 0.683 ± 0.069 | 0.71 ± 0.071 | 0.745 ± 0.075 | 0.761 ± 0.076 | 0.784 ± 0.079 | 0.807 ± 0.081 | 0.819 ± 0.082
323.15 K | 0.56 ± 0.056 | 0.597 ± 0.06 | 0.604 ± 0.061 | 0.614 ± 0.062 | 0.639 ± 0.064 | 0.655 ± 0.066 | 0.664 ± 0.067 | 0.684 ± 0.069 | 0.692 ± 0.069

CC(Cl)(Cl)Cl + Cc1ccc(C)cc1
303.15 K, 101 kPa
Conditions | viscosity [mPa·s]
x1 = 0.1341 | 0.6079 ± 0.016
x1 = 0.2166 | 0.632 ± 0.016
x1 = 0.3072 | 0.6566 ± 0.017
x1 = 0.4291 | 0.6846 ± 0.018
x1 = 0.5112 | 0.6988 ± 0.018
x1 = 0.6202 | 0.7113 ± 0.018
x1 = 0.69 | 0.7164 ± 0.018
x1 = 0.7824 | 0.7206 ± 0.019
x1 = 0.8403 | 0.7216 ± 0.019
x1 = 0.9044 | 0.7226 ± 0.019

O=CO + CC(=O)O
viscosity [mPa·s], 101 kPa
Conditions | 298.15 K | 323.15 K
x1 = 0.0603 | 1.119 ± 0.03 | 0.7729 ± 0.021
x1 = 0.1 | 1.286 ± 0.034 | –
x1 = 0.2 | 1.391 ± 0.037 | –
x1 = 0.2363 | 1.278 ± 0.034 | 0.8526 ± 0.023
x1 = 0.3 | 1.463 ± 0.039 | –
x1 = 0.4 | 1.506 ± 0.04 | –
x1 = 0.4165 | 1.425 ± 0.038 | 0.9226 ± 0.025
x1 = 0.5 | 1.564 ± 0.042 | –
x1 = 0.6 | 1.587 ± 0.042 | –
x1 = 0.613 | 1.52 ± 0.04 | 0.9694 ± 0.026
x1 = 0.7 | 1.607 ± 0.043 | –
x1 = 0.7416 | 1.565 ± 0.042 | 0.9847 ± 0.026
x1 = 0.8 | 1.607 ± 0.043 | –
x1 = 0.8864 | 1.565 ± 0.042 | 0.9893 ± 0.026
x1 = 0.9 | 1.582 ± 0.042 | –
x1 = 0.9578 | 1.56 ± 0.042 | 0.9775 ± 0.026
